In data set [1] the test system is Klebsiella pneumoniae ATCC 10031. Put plainly: MIC by broth microdilution method. The conditions noted are these: Gram-negative; 37°, 18 h. Format: cell-based. In general terms: Dilution methods test growth across graded concentrations, often in twofold steps.
Data set [2] concerns Candida tropicalis (ATCC 1369). Put plainly: Antifungal MIC by broth dilution. Format: cell-based. The conditions noted are these: read-out: MIC values, Ct.

Values after ≈ are worked out from the molar mass of the structure shown.

For `Cc1ccc(C)n1-c1ccc(C(=O)NNC=O)cc1` [Compound 5, 4-(2,5-dimethyl-1H-pyrrol-1-yl)-N’-formylbenzohydrazide], the “MIC values, Kp” value in data set [1] was found to be 31.25 µg/mL (≈ 121 µM). In general, MIC refers to the lowest concentration found to suppress growth. For `Cc1ccc(C)n1-c1ccc(-c2nnc(-c3ccc(O)cc3)[nH]2)cc1` [Compound 4g, 4-(5-(4-(2,5-Dimethyl-1H-pyrrol-1-yl)phenyl)-4H-1,2,4-triazol-3-yl) phenol], the MIC in data set [2] turned out to be 31.2 µg/mL (≈ 94.6 µM). `Cc1ccc(C)n1-c1ccc(-c2nnc(-c3ccccc3[N+](=O)[O-])[nH]2)cc1` [Compound 4f, 3-(4-(2,5-Dimethyl-1H-pyrrol-1-yl)phenyl)-5-(2-nitrophenyl)-4H-1,2,4-triazole]: the MIC in data set [2] came out at 31.2 µg/mL (≈ 87 µM).

For `Cc1ccc(C)n1-c1ccc(-c2nnc(-c3cccc([N+](=O)[O-])c3)[nH]2)cc1` [Compound 4e, 3-(4-(2,5-Dimethyl-1H-pyrrol-1-yl)phenyl)-5-(3-nitrophenyl)-4H-1,2,4-triazole], in data set [2], the MIC amounted to 31.2 µg/mL (≈ 87 µM).

The values are drawn from paper PMC3783749 (Indian Journal of Pharmaceutical Sciences, 2013).
